{"source": "patent US20090288227A1", "about": "“Improvements in or Relating to Starch Storage in Plants” (University of Durham, priority 2006, published 2009)", "type_in_all_cases": "in vivo, Arabidopsis thaliana", "key": {"FUS3 transcript": {"tested_on": "FUS3 transcript", "assay": "Semi-quantitative RT-PCR of FUS3 transcript in treated tnp seedlings", "settings": "tnp seedlings at 1-2 days post-germination", "excerpt": "(§1) Alternatively, it is possible that these compounds may act by changing the expression of other key embryonic regulators to alter penetrance. FUS3 and LEC2 play key roles in embryogenesis and the transition to germination (Luerben et al, 1998 Plant J. 15, 755-764; Stone et al, 2001 Proc. Natl. Acad. Sci. USA 98, 11806-11811; Kroj et al, 2003 Development 130, 6065-6073). Semi-quantitative RT-PCR was used to determine whether the transcript levels in these genes were affected in tnp seedlings at 1-2 days post-germination in response to treatment with these compounds (see FIG. 10b)."}, "LEC2 transcripts": {"tested_on": "LEC2 transcripts", "assay": "Semi-quantitative RT-PCR of LEC2 transcript in treated tnp seedlings", "settings": "tnp seedlings at 1-2 days post-germination", "excerpt": "as §1"}, "tnp seedlings": {"tested_on": "tnp seedlings", "assay": "Penetrance of the tnp phenotype in seedlings germinated and grown on medium containing the compound", "settings": "for effect on penetrance of the tnp phenotype: tnp seed germinated and grown in presence of the compound, result in words", "protocol": "In order to establish whether the incomplete penetrance was due to methylation-dependent gene silencing, individual T3 sibling lines were germinated in the presence of 100 μM 5-azacytidine, a methylation inhibitor (Jones and Taylor, 1980 Cell 20, 85-93). […]\nThe tnp mutant phenotype is similar to that of the pkl mutant, which is characterised by the development of swollen and greenish roots that accumulate triacylglycerols and protein bodies (Ogas et al, 1997 Science 277, 91-94; Ogas et al, 1999 Proc. Natl. Acad. Sci. USA 96, 13839-13844). The penetrance of the pkl mutant phenotype is also variable and is affected by gibberellic acid and the gibberellin biosynthesis inhibitor, uniconazole-P. In order to determine whether growth factors have an effect on the penetrance of the tnp phenotype, the tnp seed was germinated and grown in the presence of a number of compounds (see Table 2).\nGiven the large quantities of starch stored in tnp, the effect of sugars on penetrance was examined. […] Furthermore, the effect of 1% glucose or fructose was not as potent as the effect obtained from sucrose alone. […] The effect of sugars on the penetrance of tnp was not due to an osmotic effect, since mannitol was ineffective at inducing penetrance in the absence of sugar (data not shown)."}, "LEC1 transcript": {"tested_on": "LEC1 transcript", "assay": "Semi-quantitative RT-PCR of LEC1 transcript in treated germinating seedlings", "settings": "tnp and pls control seedlings, RNA at 1-2 days post-germination", "protocol": "To investigate the mechanism by which these compounds work, germinating seedlings were treated with each of the compounds, as well as with gibberellic acid (which has no effect on penetrance), and RNA was extracted at 1-2 days post-germination. […] Therefore, the effect of these compounds on penetrance is not mediated by alterations in LEC1 transcript levels, although post-transcriptional or translational effects cannot be excluded."}, "[1]": {"settings": "Table 2 second series (1/2MS10 control 47.8), 10 nM"}, "[2]": {"settings": "Table 2 second series (1/2MS10 control 47.8), 100 nM"}, "[3]": {"settings": "Table 2 first series (1/2 MS10 control 32.8), 10 nM"}, "[4]": {"settings": "Table 2 second series (1/2MS10 control 47.8), 1 μM"}, "[5]": {"settings": "Table 2 first series (1/2 MS10 control 32.8), 10 uM"}}, "note": "Marks after values point to notes of the source that are not given here."}
{"smiles": "CC(C)(C)[C@@H](O)[C@@H](Cc1ccc(Cl)cc1)n1cncn1", "note": "(racemic) [Paclobutrazol, paclobutrazol]", "values": [{"measurement": "FUS3 transcript levels", "setting": "FUS3 transcript", "result": "did not have a significant effect"}, {"measurement": "levels of LEC2 transcripts", "setting": "LEC2 transcripts", "result": "no effect"}, {"measurement": "% tnp", "setting": "tnp seedlings; [1]", "result": 84.7, "unit": "%"}, {"measurement": "% tnp", "setting": "tnp seedlings; [2]", "result": "72.3* %"}, {"measurement": "effect on penetrance of the tnp phenotype", "setting": "tnp seedlings", "result": "increased"}, {"measurement": "LEC1 transcript levels", "setting": "LEC1 transcript", "result": "unaltered"}]}
{"smiles": "O=C(O)COc1ccc(Cl)cc1Cl", "note": "[2,4-D, 2,4-dichlorophenoxyacetic acid]", "values": [{"measurement": "FUS3 transcript levels", "setting": "FUS3 transcript", "result": "increase"}, {"measurement": "levels of LEC2 transcripts", "setting": "LEC2 transcripts", "result": "significantly reduce"}, {"measurement": "% tnp", "setting": "tnp seedlings; 0% suc. + 10 nm 2,4-D", "result": 2, "unit": "%"}, {"measurement": "% tnp", "setting": "tnp seedlings; 1% suc. + 10 nm 2,4-D", "result": 85.1, "unit": "%"}, {"measurement": "% tnp", "setting": "tnp seedlings; 2% suc. + 10 nm 2,4-D", "result": 92.3, "unit": "%"}, {"measurement": "% tnp", "setting": "tnp seedlings; 3% suc. + 10 nm 2,4-D", "result": 84.1, "unit": "%"}, {"measurement": "% tnp", "setting": "tnp seedlings; 4% suc. + 10 nm 2,4-D", "result": 68.9, "unit": "%"}, {"measurement": "% tnp", "setting": "tnp seedlings; 5% suc. + 10 nm 2,4-D", "result": 82.4, "unit": "%"}, {"measurement": "% tnp", "setting": "tnp seedlings; 6% suc. + 10 nm 2,4-D", "result": 66.0, "unit": "%"}, {"measurement": "% tnp", "setting": "tnp seedlings; [3]", "result": 78.1, "unit": "%"}, {"measurement": "% tnp", "setting": "tnp seedlings; [1]", "result": 82.1, "unit": "%"}, {"measurement": "% tnp", "setting": "tnp seedlings; [2]", "result": 95.3, "unit": "%"}, {"measurement": "% tnp", "setting": "tnp seedlings; [4]", "result": 98.2, "unit": "%"}, {"measurement": "tnp penetrance compared with sucrose alone", "setting": "tnp seedlings; addition of 10 nM 2,4-D to the medium, even in absence of sucrose", "result": "greater penetrance"}, {"measurement": "penetrance of the tnp phenotype", "setting": "tnp seedlings; concentration of 1 μM", "result": "~100", "unit": "%"}, {"measurement": "penetrance of tnp", "setting": "tnp seedlings; medium containing 20% sucrose and 25 nM 2,4-D, no effect on growth", "result": "highest penetrance"}, {"measurement": "effect on penetrance of the tnp phenotype", "setting": "tnp seedlings", "result": "positive effect"}]}
{"smiles": "Nc1ncn([C@@H]2O[C@H](CO)[C@@H](O)[C@H]2O)c(=O)n1", "note": "[5-AZA-C, 5-azacytidine]", "values": [{"measurement": "% tnp", "setting": "tnp seedlings; T3 Line 1, 100 μm 5-AZA-C, 1/2MS10 control 28", "result": 62, "unit": "%"}, {"measurement": "% tnp", "setting": "tnp seedlings; T3 Line 7, 100 μM 5-AZA-C, 1/2MS10 control 0", "result": 7.4, "unit": "%"}, {"measurement": "% tnp", "setting": "tnp seedlings; T3 Line 21, 100 μM 5-AZA-C, 1/2MS10 control 41", "result": 48, "unit": "%"}, {"measurement": "penetrance of the tnp phenotype compared with control levels", "setting": "tnp seedlings; T3 sibling lines germinated in presence of 100 μM, highly variable between lines", "result": "increase in the penetrance"}]}
{"smiles": "CC1=CC(=O)CC(C)(C)[C@@]1(O)/C=C/C(C)=C\\C(=O)O", "note": "[ABA, abscisic acid]", "values": [{"measurement": "effect on penetrance of the tnp phenotype", "setting": "tnp seedlings", "result": "not found to have an effect"}]}
{"smiles": "NC1(C(=O)O)CC1", "note": "[ACC, 1-aminocyclopropane-1-carboxylate]", "values": [{"measurement": "% tnp", "setting": "tnp seedlings; Table 2 first series (1/2 MS10 control 32.8), 100 pM", "result": 29.3, "unit": "%"}, {"measurement": "effect on penetrance of the tnp phenotype", "setting": "tnp seedlings", "result": "little effect"}]}
{"smiles": "c1ccc(CNc2ncnc3nc[nH]c23)cc1", "note": "[BA, N(6)-benzyladenine]", "values": [{"measurement": "FUS3 transcript levels", "setting": "FUS3 transcript", "result": "reduction"}, {"measurement": "levels of LEC2 transcripts", "setting": "LEC2 transcripts", "result": "significantly reduce"}, {"measurement": "% tnp", "setting": "tnp seedlings; Table 2 first series (1/2 MS10 control 32.8), 100 nM", "result": 9.9, "unit": "%"}, {"measurement": "% tnp", "setting": "tnp seedlings; [1]", "result": 55, "unit": "%"}, {"measurement": "% tnp", "setting": "tnp seedlings; [2]", "result": 35.6, "unit": "%"}, {"measurement": "% tnp", "setting": "tnp seedlings; [4]", "result": 5, "unit": "%"}, {"measurement": "effect on penetrance of the tnp phenotype", "setting": "tnp seedlings", "result": "markedly suppressed"}]}
{"smiles": "C=C1C[C@]23C[C@@]1(O)CC[C@H]2[C@@]12C=C[C@H](O)[C@@](C)(C(=O)O1)[C@H]2[C@@H]3C(=O)O", "note": "[GA, gibberellic acid]", "values": [{"measurement": "FUS3 transcript levels", "setting": "FUS3 transcript", "result": "did not have a significant effect"}, {"measurement": "levels of LEC2 transcripts", "setting": "LEC2 transcripts", "result": "significantly reduce"}, {"measurement": "effect on the positive effect of paclobutrazol on tnp penetrance", "setting": "tnp seedlings; 10 nM paclobutrazol and 10 μM gibberellic acid together, data not shown", "result": "partially suppressed"}, {"measurement": "% tnp", "setting": "tnp seedlings; [5]", "result": 37.3, "unit": "%"}, {"measurement": "% tnp", "setting": "tnp seedlings; [1]", "result": 42.1, "unit": "%"}, {"measurement": "% tnp", "setting": "tnp seedlings; [2]", "result": 52, "unit": "%"}, {"measurement": "% tnp", "setting": "tnp seedlings; [4]", "result": 58.4, "unit": "%"}, {"measurement": "% tnp", "setting": "tnp seedlings; Table 2 second series (1/2MS10 control 47.8), 10 μM", "result": 45.4, "unit": "%"}, {"measurement": "effect on penetrance of the tnp phenotype", "setting": "tnp seedlings", "result": "weakly positive effect"}, {"measurement": "LEC1 transcript levels", "setting": "LEC1 transcript", "result": "unaltered"}]}
{"smiles": "O=C(O)Cc1c[nH]c2ccccc12", "note": "[IAA, indole-3-acetic acid]", "values": [{"measurement": "% tnp", "setting": "tnp seedlings; Table 2 first series (1/2 MS10 control 32.8), 50 nM", "result": 69.1, "unit": "%"}, {"measurement": "effect on penetrance of the tnp phenotype", "setting": "tnp seedlings", "result": "positive effect"}]}
{"smiles": "O=C(O)Cc1cccc2ccccc12", "note": "[NAA, naphthaleneacetic acid]", "values": [{"measurement": "% tnp", "setting": "tnp seedlings; [3]", "result": 42.8, "unit": "%"}]}
{"smiles": "O=C(O)COc1cccc2ccccc12", "note": "[NOA, naphthoxyacetic acid]", "values": [{"measurement": "% tnp", "setting": "tnp seedlings; [5]", "result": 58.8, "unit": "%"}, {"measurement": "effect on penetrance of the tnp phenotype", "setting": "tnp seedlings", "result": "positive effect"}]}
{"smiles": "O=C(O)c1ccccc1C(=O)Nc1cccc2ccccc12", "note": "[NPA, 1-N-naphthylphthalamic acid]", "values": [{"measurement": "% tnp", "setting": "tnp seedlings; [5]", "result": 55.4, "unit": "%"}, {"measurement": "effect on penetrance of the tnp phenotype", "setting": "tnp seedlings", "result": "positive effect"}]}
{"smiles": "O=C(CO)[C@@H](O)[C@H](O)[C@H](O)CO", "note": "[fructose]", "values": [{"measurement": "effect on tnp penetrance compared with sucrose alone", "setting": "tnp seedlings; 1% sugar, data not shown", "result": "not as potent"}]}
{"smiles": "OC[C@@H](O)[C@@H](O)[C@H](O)[C@H](O)CO", "note": "[mannitol]", "values": [{"measurement": "inducing tnp penetrance in the absence of sugar", "setting": "tnp seedlings; osmotic control, data not shown", "result": "ineffective"}]}
{"smiles": "OC[C@H]1O[C@@](CO)(O[C@H]2O[C@H](CO)[C@@H](O)[C@H](O)[C@H]2O)[C@@H](O)[C@@H]1O", "note": "[suc., sucrose]", "values": [{"measurement": "% tnp", "setting": "tnp seedlings; 1% suc. in medium", "result": 60.5, "unit": "%"}, {"measurement": "% tnp", "setting": "tnp seedlings; 2% suc. in medium", "result": 65.4, "unit": "%"}, {"measurement": "% tnp", "setting": "tnp seedlings; 3% suc. in medium", "result": 58.4, "unit": "%"}, {"measurement": "% tnp", "setting": "tnp seedlings; 4% suc. in medium", "result": 52.4, "unit": "%"}, {"measurement": "% tnp", "setting": "tnp seedlings; 5% suc. in medium", "result": 54.1, "unit": "%"}, {"measurement": "% tnp", "setting": "tnp seedlings; 6% suc. in medium", "result": 42.8, "unit": "%"}, {"measurement": "level of tnp penetrance over sucrose concentrations", "setting": "tnp seedlings; concentration of 2% sucrose", "result": "highest level of penetrance"}]}
